EP2951180B1, “2,6,7,8 SUBSTITUTED PURINES AS HDM2 INHIBITORS” (Merck Sharp & Dohme Corp., priority 2013, dated 2014)

Molecular target: T1, HDM2 (Homo sapiens, UniProt Q00987)
T1 construct: Thioredoxin (N); made in house; host or cells: E. coli strain BL21(DE3)Rosetta
Assay: HDM2 FRET assay (inhibition of binding of FITC labeled p53-pocket peptide to HDM2)
Details: Table 6; read-out: FRET IC50
Procedure, shortened: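 Displacement of FITC-p53 peptide (3 nM) from His-tagged HDM2 (0.5 nM) is measured by Tb-to-fluorescein FRET in PBS, 0.01% BSA, 0.01% Tween-20. IC50 values derive from 10-point curves.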

T1 sequence (Q00987 17-125): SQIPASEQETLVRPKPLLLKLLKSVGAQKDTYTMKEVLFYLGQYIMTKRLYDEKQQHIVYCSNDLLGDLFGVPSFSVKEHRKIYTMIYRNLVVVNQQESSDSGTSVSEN

How did the IC50 turn out when Cc1cccc(-c2nc3nc(C(=O)O)nc(N(C)CC(C)(C)C)c3n2Cc2ccc(C(F)(F)F)cc2)c1 [Example 6.82, 6-[(2,2-dimethylpropyl)(methyl)amino]-8-(3-methylphenyl)-7-[4-(trifluoromethyl)benzyl]-7H-purine-2-carboxylic acid] was run?
Its IC50 is 899 nM.

Which IC50 does the source give for CCCCN(C)c1nc(C(=O)O)nc2nc(-c3cccc(C)c3)n(Cc3ccc(C(F)(F)F)cc3)c12 [Example 6.83, 6-[butyl(methyl)amino]-8-(3-methylphenyl)-7-[4-(trifluoromethyl)benzyl]-7H-purine-2-carboxylic acid] here?
The IC50 was 834 nM.

How did the IC50 turn out when Cc1cccc(-c2nc3nc(C(=O)O)nc(N4CCCC4C(C)C)c3n2Cc2ccc(C(F)(F)F)cc2)c1 (centres unmarked) [Example 6.85, 6-[2-(1-methylethyl)pyrrolidin-1-yl]-8-(3-methylphenyl)-7-[4-(trifluoromethyl)benzy 1]-7H-purine-2-carboxylic acid] was run?
The IC50 was 723 nM.

Which IC50 does the source give for CCCC1CCCN1c1nc(C(=O)O)nc2nc(-c3cccc(C)c3)n(Cc3ccc(C(F)(F)F)cc3)c12 (centres unmarked) [Example 6.86, 8-(3-methylphenyl)-6-(2-propylpyrrolidin-1-yl)-7-[4-(trifluoromethyl)benzyl]-7H-purine-2-carboxylic acid] here?
Its IC50 is 754 nM.

For CCC(C)CN(C)c1nc(C(=O)O)nc2nc(-c3cccc(C)c3)n(Cc3ccc(C(F)(F)F)cc3)c12 (centres unmarked) [Example 6.89, 6-[methyl(2-methylbutyl)amino]-8-(3-methylphenyl)-7-[4-(trifluoromethyl)benzyl]-7H-purine-2-carboxylic acid], which IC50 is on record?
The IC50 was 730 nM.

For CCCCCN(C)c1nc(C(=O)O)nc2nc(-c3cccc(C)c3)n(Cc3ccc(C(F)(F)F)cc3)c12 [Example 6.91, 6-[methyl(pentyl)amino] -8-(3-methylphenyl)-7-[4-(trifluoromethyl)benzyl]-7H-purine-2-carboxylic acid], which IC50 is on record?
The IC50 was 731 nM.

How did the IC50 turn out when Cc1cccc(-c2nc3nc(C(=O)O)nc(N4CCCC4C4CCC4)c3n2Cc2ccc(C(F)(F)F)cc2)c1 (centres unmarked) [Example 6.92, 6-(2-cyclobutylpyrrolidin-1-yl)-8-(3-methylphenyl)-7-[4-(trifluoromethyl)benzyl]-7H-purine-2-carboxylic acid] was run?
Its IC50 is 352 nM.

Which IC50 does the source give for Cc1cccc(-c2nc3nc(C(=O)O)nc(N4CCC4C4CCC4)c3n2Cc2ccc(C(F)(F)F)cc2)c1 (centres unmarked) [Example 6.93, 6-(2-cyclobutylazetidin-1-yl)-8-(3-methylphenyl)-7-[4-(trifluoromethyl)benzyl]-7H-purine-2-carboxylic acid] here?
The IC50 was 806 nM.

With Cc1cccc(-c2nc3nc(C(=O)O)nc(N4CCCCC4C4CCC4)c3n2Cc2ccc(C(F)(F)F)cc2)c1 (centres unmarked) [Example 6.95, 6-(2-cyclobutylpiperidin-1-yl)-8-(3-methylphenyl)-7-[4-(trifluoromethyl)benzyl]-7H-purine-2-carboxylic acid] as the compound, how does the IC50 read?
The IC50 was 271 nM.

Same assay, conditions: Table 7; read-out: FRET IC50

Cc1cccc(-c2nc3nc(C(=O)O)nc(N[C@H](CCCO)C4CCC4)c3n2Cc2ccc(Cl)cc2)c1 [Example 7.1, 7-(4-chlorobenzyl)-6-{[(1R)-1-cyclobutyl-4-hydroxybutyl]amino}-8-(3-methylphenyl)-7H-purine-2-carboxylic acid] was tested. Which IC50 did it give?
Its IC50 is 105 nM.

How did the IC50 turn out when Cc1cccc(-c2nc3nc(C(=O)O)nc(N[C@H](CCCO)C4CCC4)c3n2Cc2ccc(C(F)(F)F)cc2)c1 [Example 7.2, 6-{[(1R)-1-cyclobutyl-4-hydroxybutyl]amino}-8-(3-methylphenyl)-7-[4-(trifluoromethyl)benzyl]-7H-purine-2-carboxylic acid] was run?
The IC50 was 41 nM.

How did the IC50 turn out when Cc1cccc(-c2nc3ncnc(N[C@H](CCCO)C4CCC4)c3n2Cc2ccc(C(F)(F)F)cc2)c1 [Example 7.3, (4R)-4-cyclobutyl-4-({8-(3-methylphenyl)-7-[4-(trifluoromethyl)benzyl]-7H-purin-6-yl}amino)butan-1-ol] was run?
Its IC50 is 3240 nM.

How did the IC50 turn out when CCC[C@@H](Nc1nc(C(=O)O)nc2nc(-c3cccc(C)c3)n(Cc3ccc(C(F)(F)F)cc3)c12)C1CCC1 [Example 7.5, 6-{[(1R)-1-cyclobutylbutyl]amino}-8-(3-methylphenyl)-7-[4-(trifluoromethyl)benzyl]-7H-purine-2-carboxylic acid] was run?
The IC50 was 142 nM.

For Cc1cccc(-c2nc3nc(C(=O)O)nc(N[C@H](CCC(=O)NCCO)C4CCC4)c3n2Cc2ccc(C(F)(F)F)cc2)c1 [Example 7.7, 6-({(1R)-1-cyclobutyl-4-[(2-hydroxyethyl)amino]-4-oxobutyl}amino)-8-(3-methylphenyl)-7-[4-(trifluoromethyl)benzyl]-7H-purine-2-carboxylic acid], which IC50 is on record?
The IC50 was 832 nM.

Which IC50 does the source give for Cc1cccc(-c2nc3nc(C(=O)O)nc(N4CCC[C@@H]4C4CCC4)c3n2Cc2ccc(C(F)(F)F)cc2)c1 [Example 7.8, 6-[(2R)-2-cyclobutylpyrrolidin-1-yl]-8-(3-methylphenyl)-7-[4-(trifluoromethyl)benzyl]-7H-purine-2-carboxylic acid] here?
The IC50 was 188 nM.

How did the IC50 turn out when Cc1cccc(-c2nc3ncnc(N4CCC[C@@H]4C4CCC4)c3n2Cc2ccc(C(F)(F)F)cc2)c1 [Example 7.9, 6-[(2R)-2-cyclobutylpyrrolidin-1-yl]-8-(3-methylphenyl)-7-[4-(trifluoromethyl)benzyl]-7H-purine] was run?
Its IC50 is 4480 nM.

With Cc1cccc(-c2nc3nc(C(=O)O)nc(N[C@H](CCCN4CCN(C)CC4)C4CCC4)c3n2Cc2ccc(C(F)(F)F)cc2)c1 [Example 7.10, 6-{[(1R)-1-cyclobutyl-4-(4-methylpiperazin-1-yl)butyl]amino}-8-(3-methylphenyl)-7-[4-(trifluoromethyl)benzyl]-7H-purine-2-carboxylic acid] as the compound, how does the IC50 read?
Its IC50 is 94.3 nM.

Same assay, conditions: read-out: inh. at 1000 nM (FRET)

How did the inhibition at 1 µM turn out when Cc1cccc(-c2nc3nc(C(=O)O)nc(N(C)C(C)C(C)C)c3n2Cc2ccc(C(F)(F)F)cc2)c1 (centres unmarked) [Example 6.81, 6-[(1,2-dimethylpropyl)(methyl)amino]-8-(3-methylphenyl)-7-[4-(trifluoromethyl)benzyl]-7H-purine-2-carboxylic acid] was run?
The inhibition at 1 µM was 46%.

Which inhibition at 1 µM does the source give for Cc1cccc(-c2nc3nc(C(=O)O)nc(N(C)C(C4CC4)C4CC4)c3n2Cc2ccc(C(F)(F)F)cc2)c1 [Example 6.84, 6-[(dicyclopropylmethyl)(methyl)amino]-8-(3-methylphenyl)-7-[4-(trifluoromethyl)benzyl]-7H-purine-2-carboxylic acid] here?
Its inhibition at 1 µM is 46%.

For Cc1cccc(-c2nc3nc(C(=O)O)nc(N4CCCC4C(C)(C)C)c3n2Cc2ccc(C(F)(F)F)cc2)c1 (centres unmarked) [Example 6.87, 6-(2-tert-butylpyrrolidin-1-yl)-8-(3-methylphenyl)-7-[4-(trifluoromethyl)benzyl]-7H-purine-2-carboxylic acid], which inhibition at 1 µM is on record?
Its inhibition at 1 µM is 43%.

Which inhibition at 1 µM does the source give for Cc1cccc(-c2nc3nc(C(=O)O)nc(N(C)C(C)C4CC4)c3n2Cc2ccc(C(F)(F)F)cc2)c1 (centres unmarked) [Example 6.88, 6-[(1-cyclopropylethyl)(methyl)amino]-8-(3-methylphenyl)-7-[4-(trifluoromethyl)benzyl]-7H-purine-2-carboxylic acid] here?
The inhibition at 1 µM was 33%.

For Cc1cccc(-c2nc3nc(C(=O)O)nc(N(C)CC4CC4(C)C)c3n2Cc2ccc(C(F)(F)F)cc2)c1 (centres unmarked) [Example 6.90, 6-{[(2,2-dimethylcyclopropyl)methyl](methyl)amino}-8-(3-methylphenyl)-7-[4-(trifluoromethyl)benzyl]-7H-purine-2-carboxylic acid], which inhibition at 1 µM is on record?
Its inhibition at 1 µM is 34%.

Cc1cccc(Nc2nc(C(=O)O)nc3nc(-c4cccc(C)c4)n(Cc4ccc(C(F)(F)F)cc4)c23)c1 [Example 6.94, 8-(3-methylphenyl)-6-[(3-methylphenyl)amino]-7-[4-(trifluoromethyl)benzyl]-7H-purine-2-carboxylic acid] was tested. Which inhibition at 1 µM did it give?
Its inhibition at 1 µM is 32%.
